Source: article PMC5000727, “Molecular Insights into the Potential Toxicological Interaction of 2-Mercaptothiazoline with the Antioxidant Enzyme—Catalase” (International Journal of Molecular Sciences, 2016)

Molecular target: T1, catalase (CAT), from bovine liver (Bos taurus, UniProt P00432)
T1 construct: native enzyme from bovine liver, commercial (Sigma), EC 1.11.1.6; homotetramer; PDB 1TGU printed only as docking model
T1 sequence (P00432 2-527): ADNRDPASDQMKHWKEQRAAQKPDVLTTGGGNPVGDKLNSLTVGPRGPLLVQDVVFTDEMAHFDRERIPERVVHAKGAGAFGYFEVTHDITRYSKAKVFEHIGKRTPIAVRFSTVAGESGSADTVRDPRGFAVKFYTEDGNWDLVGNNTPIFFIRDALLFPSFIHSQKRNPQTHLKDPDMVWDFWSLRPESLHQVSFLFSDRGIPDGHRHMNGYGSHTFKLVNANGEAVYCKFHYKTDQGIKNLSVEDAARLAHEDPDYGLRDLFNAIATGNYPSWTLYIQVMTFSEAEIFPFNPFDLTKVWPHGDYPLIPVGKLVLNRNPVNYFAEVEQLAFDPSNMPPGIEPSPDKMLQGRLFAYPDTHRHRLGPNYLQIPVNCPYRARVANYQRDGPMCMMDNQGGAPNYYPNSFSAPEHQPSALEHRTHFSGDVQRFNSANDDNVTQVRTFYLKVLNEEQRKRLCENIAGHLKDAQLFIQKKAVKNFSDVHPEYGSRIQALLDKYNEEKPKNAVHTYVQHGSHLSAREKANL
Assay: intrinsic fluorescence quenching (ex […] nm)
Format: binding
Conditions: double-log; pH 7.4, 291 K, phosphate buffer; n = 1.14; unit printed mol·L^−1 but must be L·mol^−1 (printed ΔG° agrees); also measured at 300, 309, 318 K

- Ka (× 10^4 mol.L^-1): 2.97 × 10^4 mol·L^−1
Compound: S=C1NCCS1 [2-mercaptothiazoline, 1,3-thiazolidine-2-thione]
